Data taken from US8138148B2, “GDNF derived peptides” (Copenhagen University, priority 2005, dated 2012).

How the values were obtained:
[1] = test system: hippocampal neurons; assay: Neurite outgrowth in co-cultures with pharmacological inhibitors (PP2, SU5402); type: cell-based, rat; conditions: neurons on control or NCAM-expressing fibroblasts; for effect of inhibitor on GDNF-induced neurite outgrowth: 10 ng/ml GDNF, PP2 0.2-25 μM, SU5402 1-25 μM; for effect of inhibitor on G2-induced neurite outgrowth: 3 μg/ml G2, PP2 0.2-100 μM, SU5402 1-100 μM, 24 hours
Protocol: (§1) In monocultures, neurons are grown directly on plastic and the only neuritogenic stimulus is the one presented by the added substance. In co-cultures, neurons are grown on top of a confluent monolayer of fibroblasts expressing NCAM-140 (LBN110) or NCAM-negative control fibroblasts (LVN212). NCAM on the neurons interact with NCAM on LBN110 cells thereby stimulating neurite outgrowth from the neurons. This system thus permits the study of NCAM-NCAM interactions and interactions between NCAM and other molecules.
(§2) For cocultures, L-cells were seeded in 8-well LabTek® Permanox Chamber slides at a density of 100.000 cells/well, except for transfection experiments where cells were seeded in 4-well LabTek® Permanox Chamber slides at a density of 200.000 cells/well. L-cells were grown for 24 hours in DMEM supplemented with 10% (v/v) FCS, 1% (v/v) glutamax, 100 U/ml penicillin, 100 μg/ml streptomycin, 2.5 μg/ml fungizone, and 567 μg/ml neomycin (G418), followed by washing twice in neurobasal medium with supplements before primary hippocampal neurons were seeded at a density of 7.000 cells/well in 8-well slides or 20.000 cells/well in 4-well slides.
To evaluate the involvement different intracellular signal transduction pathways pharmacological inhibitors, in particular the FGFR inhibitor SU5402 and Fyn-kinase inhibitor PP2, were diluted to the appropriate concentrations and added to the neurons immediately after seeding. After 10 minutes GDNF, GDNFp1 or medium (controls) was added and cells were incubated for 24 hours.
(§3) Neurite outgrowth experiments were terminated after the stated time by fixating the cells. To visualize neurons and their neurites, immunostaining of GAP-43 was performed. This staining is specific for neurons. Transfected cells and their neurites should be visible without immunostaining due to the fluorescence emitted by GFP. […] GFP is a cytoplasmic protein, and since thin neurites only contain a small volume of cytoplasm, GFP is only found in small amounts in most neurites. Therefore, a double-staining protocol, where cells were immunostained against GFP and GAP-43, was adopted. This protocol allowed the identification of transfected cells on the basis of GFP-staining in combination with visualization of neurites based on GAP-43-staining.
Without prior removal of the medium 300 μl/well (8-well slides) or 500 μl/well (4-well slides) of a PBS solution containing 0.4 mM CaCl2, 0.05 M sucrose and 8% (v/v) formaldehyde was added to the cultures for 20 minutes. Cells were then washed 10 minutes in PBS followed by washing in PBS with 1% (w/v) BSA for 20 minutes, after which cells were incubated with primary antibodies overnight at 4° C. […]

[2] = test system: GFRα receptors; assay: Surface plasmon resonance (SPR) binding analysis, GFRα receptors; conditions: immobilized receptor protein, 25° C., PBS pH 7.4
Protocol: Analysis of binding was performed employing a BIAcoreX instrument (Biosensor AB, Uppsala, Sweden) at 25° C. using 10 mM pH 7.4 sodium phosphate containing 150 mM NaCl as running buffer (phosphate-buffered saline, PBS). The flow-rate was 5 μl/min. Data were analysed by non-linear curve-fitting using the manufacturer's software. The receptor proteins, e.g. NCAM Ig1-Ig2 and GFR proteins, were immobilized on a sensor chip CM5 using an amine coupling kit (Biosensor AB) as follows: the chip was activated by 20 μl activation solution; the protein was immobilized using 12 μl 20 μg/ml protein in 10 mM sodium phosphate buffer pH 6.0; the chip was blocked by 35 μl blocking solution. Various peptides at the indicated concentrations were injected into the sensor chip. The curve corresponding to the difference between binding to receptor and a blank chip was used for analysis.

[3] = test system: cerebellar granule neurons (CGN); assay: Survival assay, cerebellar granule neurons (apoptosis induced by low KCl); type: cell-based, Wistar rat; conditions: 5 mM KCl, two days after induction of apoptosis
Protocol: Cerebellar granule neurons (CGN) were prepared from postnatal day seven Wistar rats largely as previously described by Schousboe et al. (1989). Cerebellar tissue was dissected in modified Krebs-Ringer solution kept on ice, and treated as described for the hippocampal neurons above. All cell cultures were incubated at 37° C. in a humidified atmosphere containing 5% CO2. All animals were handled in accordance with the national guidelines for animal welfare.
Primary cultures of CGN were plated at a density of 100,000 cells/cm^2 on poly-L-lysine coated 8-well permanox slides in Neurobasal-A medium (Gibco, BRL) supplemented with 2% (v/v) B27, 0.5% (v/v) glutamax, 100 U/ml penicillin, 100 μg/ml streptomycin and KCl, making the final concentration of KCl in the medium 40 mM. 24 hours after plating, cytosine-β-D-arabinofuranoside (Ara-C; Sigma-Aldrich) was added to a final concentration of 10 μM to avoid proliferation of glial cells, after which the neurons were allowed to differentiate for further six days at 37° C. Apoptotic cell death was induced by washing twice and changing the medium to Basal Medium Eagle (BME; Gibco BRL) supplemented with 1% (v/v) glutamine, 100 U/ml penicillin and 100 μg/ml streptomycin, 3.5 g D-glucose/l and 1% (v/v) sodium pyruvate (Gibco BRL) together with various concentrations of peptide. Thereby the concentration of potassium in the cultures was reduced to 5 mM KCl (D'Mello et al., 1993). Two days after induction of apoptosis, the cells were fixed with 4% (v/v) formaldehyde and stained with Hoechst 33258 for 25 minutes as described by Kruman et al. (1997). Images of 1000-1500 neurons were randomly recorded for each group in each experiment using computer assisted fluorescence microscopy as described for the hippocampal neurite outgrowth assay. Nuclei from dead and live neurons were counted using the software package Prima developed at the Protein Laboratory, and the fraction of live neurons relative to the total number of neurons was estimated.

[4] = test system: primary hippocampal neurons; assay: Neurite outgrowth assay, monocultures of primary hippocampal neurons; type: cell-based, rat; conditions: monoculture, stimulated 24 hours; GDNF 1-100 ng/ml, peptides 0.1-27 μg/ml; versus medium alone
Protocol: (§4) Two different versions of the neurite outgrowth assay were used in this study, monocultures and co-cultures.
as §1
(§5) For all experiments cells were grown in neurobasal medium with supplements as described above in a final volume of 300 μl/well in 8-well LabTek® Permanox Chamber slides or 500 μl/well in 4-well LabTek® Permanox Chamber slides.
For monocultures, primary hippocampal neurons were seeded in 8-well LabTek® Permanox Chamber slides at a density of 10,000 cells/well.
(§6) To evaluate the effect peptides on neurite outgrowth, GDNF and the peptides, G1, G2, G3, A1, A2, A3, N1, N2 and N3 were diluted to the appropriate concentrations and added to the neurons approximately 10 minutes after seeding. Medium alone was added to controls, and cells were incubated for 24 hours.
as §3, with “GAP-43-staining. […]” for “GAP-43-staining.”

[5] = test system: hippocampal neurons; assay: Neurite outgrowth assay, co-cultures of hippocampal neurons on control fibroblasts or NCAM-expressing fibroblasts; type: cell-based, rat; conditions: 24 hours
Protocol: as §4, §1, §5, §2, §6, §3
Without prior removal of the medium 300 μl/well (8-well slides) or 500 μl/well (4-well slides) of a PBS solution containing 0.4 mM CaCl2, 0.05 M sucrose and 8% (v/v) formaldehyde was added to the cultures for 20 minutes. Cells were then washed 10 minutes in PBS followed by washing in PBS with 1% (w/v) BSA for 20 minutes, after which cells were incubated with primary antibodies overnight at 4° C.
Rabbit anti-rat GAP-43 antibodies were diluted 1:1000 for staining of untransfected cells and 1:2000 for staining of transfected cells. Mouse anti-GFP antibodies were diluted 1:1000. Antibodies were diluted in a PBS solution containing 7% (v/v) FCS to block unspecific binding, 50 mM glycine to block formaldehyde used for fixation, 0.2% (v/v) saponin to permeabilize cells, and 0.02% (v/v) NaN3 to preserve antibodies for later use.
The next day cells were washed 10 minutes in PBS followed by washing in PBS with 1% (w/v) BSA for 20 minutes. Cells were then incubated with secondary antibodies diluted in PBS with 1% (w/v) BSA for one hour at room temperature. Goat anti-rabbit IgG antibodies conjugated to Alexa 488 were diluted 1:1000 for untransfected cells and 1:2000 for transfected cells. Goat anti-mouse IgG antibodies conjugated to Alexa 546 were diluted 1:1000. Finally cells were washed 3×7 minutes in PBS and mounted with fluorescent mounting medium. […]

| Molecule | binding to the GFRα receptors (SPR) [2] | survival of cerebellar granule neurons (CGN) [3] | also measured |
| --- | --- | --- | --- |
| CC(C)(C)n1nc(-c2ccc(Cl)cc2)c2c(N)ncnc21 [PP2] |  |  | effect of inhibitor on GDNF-induced neurite outgrowth [1]: decreases GDNF-induced neurite outgrowth; effect of inhibitor on G2-induced neurite outgrowth [1]: decreases G2-induced neurite outgrowth |
| Cc1c[nH]c(/C=C2\C(=O)Nc3ccccc32)c1CCC(=O)O [SU5402] |  |  | effect of inhibitor on GDNF-induced neurite outgrowth [1]: decreases GDNF-induced neurite outgrowth; effect of inhibitor on G2-induced neurite outgrowth [1]: decreases G2-induced neurite outgrowth |
| ARVYDLGLRRLRQRR (listed as Homo sapiens) [N2, neurturin fragment] | binding |  |  |
| DEVSFLDAHSRY (listed as Homo sapiens) [NeuGi, neurturin-derived peptide] | binding | increases the survival of CGNs |  |
| DLSFLDDNLVY (listed as Homo sapiens) [G3, GDNF fragment] |  |  | neurite outgrowth, overall effect of treatment (one-way ANOVA) [4]: do not induce neurite outgrowth; neurite outgrowth, overall effect of treatment, neurons grown on NCAM-expressing fibroblasts ([5]; co-culture on NCAM-expressing fibroblasts, GDNF 1-100 ng/ml, peptides 0.1-81 μg/ml): overall statistical significant effect; neurite outgrowth, overall effect of treatment, neurons grown on control fibroblasts ([5]; co-culture on control fibroblasts, GDNF 1-100 ng/ml, peptides 0.1-81 μg/ml): no overall significant effect; difference between neurite outgrowth on control fibroblasts and on NCAM-expressing fibroblasts across concentrations (one-way ANOVA) ([5]; difference per concentration, expressed as percentage of control): mean differences are not all the same; direction of the effect on NCAM-induced neurite outgrowth ([5]; neurons on NCAM-expressing fibroblasts, 0.3-81 μg/ml): inhibitory at higher concentrations |
| EAVSFMDVNSTWR (listed as Homo sapiens) [ArtGi, artemin-derived peptide] | binding | increases the survival of CGNs |  |
| RSPHDLSLASLLGAG (listed as Homo sapiens) [A2, artemin fragment] | binding | increases the survival of CGNs |  |
| VPVRALGLGHRSDEL (listed as Homo sapiens) [A1, artemin fragment] |  | increases the survival of CGNs |  |
| VRVSELGLGYASDET (listed as Homo sapiens) [N1, neurturin fragment] | binding | increases the survival of CGNs |  |
